Columns and labels:
human LoVo tumour cells = assay: LoVo tumour model; assay type: in vivo, athymic nude mice; settings: s.c. LoVo xenograft; ZD6126 200 mg/kg i.p. day 0; ZD1839 200 mg/kg/day p.o. days 0-13; 8 mice per group
Protocol: Athymic nude mice were implanted subcutaneously with 1.5×10^7 human LoVo tumour cells (obtained from European Collection of Cell Cultures, ECACC, CAMR, Salisbury, Wiltshire, SP4 0JG, UK; Cat. no. CCL 229) and tumours allowed to grow until they were approximately 9 mm in diameter. Groups of 8 tumour bearing mice were then treated as follows: • Control animals were dosed with PBSA 0.1 ml/10 g intraperitoneally (i.p.) single bolus on day 0 then about 2 h hours later 0.1% Tween 80 0.1 ml/10 g orally (p.o.) on day 0, followed by 0.1% Tween 80 0.1 ml/10 g p.o. once daily on days 1-13; • ZD6126 alone was dosed 200 mg/kg i.p. on day 0; • ZD1839 alone was dosed 200 mg/kg/day p.o. on days 0-13; and
(in the combination arm) ZD6126 200 mg/kg i.p. on day 0 then about 2 hours later ZD1839 200 mg/kg p.o. dosed on day 0, followed by ZD1839 200 mg/kg p.o. once daily on days 1-13. Tumour growth was measured twice weekly from calliper measurements of tumour diameter and the time taken for tumours to double in size compared using the Mann-Whitney U statistic.

A549 human NSCLC cells = assay: A549 NSCLC xenograft model; settings: for Tumour size: day 42 after tumour implantation, RT 4 Gy days 8, 9, 15, 16, ZD6126 150 mg/kg i.p. days 10, 17, ZD1839 2.5 mg per day p.o. days 7-11 and 14-18
Protocol: A549 NSCLC Xenograft Model
A human non-small cell lung cancer (NSCLC) xenograft model was used. Athymic nude mice were injected subcutaneously (s.c.) with A549 human NSCLC cells. Treatment began after 7 days when tumours were established (tumour volume=100-300 mm^3). […] Animals in all groups were sacrificed on day 42 after tumour cell implantation, when the control tumours reached approximately 2.0 cm^3.

tumour vasculature = settings: reported in Proc. Am Assoc. Cancer Res. 2000; 41: 329; cited from earlier work

Compound	Growth delay in days for tumours to double in size (human LoVo tumour cells)	inhibition of tumour growth (in words) (A549 human NSCLC cells; A549 xenograft, compared with control animals or single agents)	Tumour size (A549 human NSCLC cells) [cm^3 S.D.]	effect on tumour vasculature (in words) (tumour vasculature)
COc1cc2c(c(OC)c1OC)-c1ccc(OP(=O)(O)O)cc1[C@@H](NC(C)=O)CC2 [ZD6126, N-acetylcolchinol-O-phosphate]	3.6 days; p < 0.05	marked inhibition of tumour growth	1.17 ± 0.10	selectively disrupts tumour vasculature leading to vessel occlusion and extensive tumour necrosis
COc1cc2ncnc(Nc3ccc(F)c(Cl)c3)c2cc1OCCCN1CCOCC1 [ZD1839, N-(3-chloro-4-fluorophenyl)-7-methoxy-6-(3-morpholinopropoxy)quinazolin-4-amine, reference compound]	8.3 days; p < 0.01	–	1.41 ± 0.08	–

— patent publication US20050215530A1, “Combination therapy for the treatment of cancer” (priority 2002, published 2005)
